Measured values reported in PMC8041284, “Tunable Methacrylamides for Covalent Ligand Directed Release Chemistry” (Journal of the American Chemical Society, 2021).
*1 amine or outer side, *2 acyl side, *3 side chain or, on linkers, in order; H or OH if unused. Where a SMILES comes first, the peptide text is derived from it. Bridges are numbered along the chain shown (N, C = ends). [ ]: non-standard residue; d: D form. The star is where a group is joined. hTyr(3S-OH,4S-OH,3'-OSO3H) = N[C@H](C(=O)O)[C@H](O)[C@@H](O)c1ccc(O)c(OS(=O)(=O)O)c1; Orn(4R-OH,5R-OH) = O=C([C@H](C[C@@H](O)[C@@H](O)N[*:3])N[*:1])[*:2]; Pro(3S-OH,4S-Me) = C[C@H]1CN[C@H](C(=O)O)[C@H]1O; X1 = CCCCCOc1ccc(-c2cc(-c3ccc(C(=O)*)cc3)no2)cc1; Gln(3R-OH) = NC(=O)C[C@@H](O)[C@H](N)C(=O)O; Hyp = O=C(O)[C@@H]1C[C@@H](O)CN1

Biological target: BTK (Homo sapiens, UniProt Q06187)
Sequence (Q06187 402-655 limits assumed): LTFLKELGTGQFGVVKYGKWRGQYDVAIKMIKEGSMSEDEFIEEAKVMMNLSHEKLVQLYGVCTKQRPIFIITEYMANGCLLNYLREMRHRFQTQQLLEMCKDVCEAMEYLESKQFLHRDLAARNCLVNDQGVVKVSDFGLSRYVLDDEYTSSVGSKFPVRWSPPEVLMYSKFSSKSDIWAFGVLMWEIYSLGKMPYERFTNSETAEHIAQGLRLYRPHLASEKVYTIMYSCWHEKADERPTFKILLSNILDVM
Test: biochemical
Conditions: read-out: BTK inhibition (%)

Row | Structure (SMILES) | inhibition at 10 µM [%]
1 | COC1=C[C@]23CCCN2CCc2cc4c(cc2[C@@H]3[C@@H]1O)OCO4 [PCM-0214978] | 0
2 | CCC1(c2cccc(O)c2)CCCCN(C)C1 (stereo not drawn) [PCM-0086257] | 7.8
3 | CC(C)=CCC[C@H](C(=O)O)[C@@H]1CC[C@]2(C)C3=C(CC[C@@]12C)[C@@]1(C)CCC(=O)C(C)(C)[C@@H]1CC3 [PCM-0216312] | -6.2

Same assay, conditions: read-out: BTK inhibition (%), 0.75 uM BTK, […] probe 3l, 15 min preincubation

Row | Structure (SMILES) | inhibition at 10 µM [%]
4 | CCCCCOc1ccc(-c2cc(-c3ccc(C(=O)N[C@H]4C[C@@H](O)[C@@H](O)NC(=O)[C@@H]5[C@@H](O)[C@@H](C)CN5C(=O)[C@H]([C@H](O)CC(N)=O)NC(=O)[C@H]([C@H](O)[C@@H](O)c5ccc(O)c(OS(=O)(=O)O)c5)NC(=O)[C@@H]5C[C@@H](O)CN5C(=O)[C@H]([C@@H](C)O)NC4=O)cc3)no2)cc1 [PCM-0215341] (X1-[Orn(4R-OH,5R-OH)]T[Hyp][hTyr(3S-OH,4S-OH,3'-OSO3H)][Gln(3R-OH)][Pro(3S-OH,4S-Me)]; lactam 1-C) | 3.4
5 | OCCOc1ccc(/C(=C(/CCCl)c2ccccc2)c2ccccc2)cc1 [PCM-0214796] | 73.9
6 | N[C@@H](CSCCCO)C(=O)O [PCM-0095309] | 17.9
7 | O=C(O)c1ccc(C=C2SC(=S)N(c3cccc(C(F)(F)F)c3)C2=O)cc1 [PCM-0095759] | 54.1
8 | O=c1oc2c(O)c(O)cc3c(=O)oc4c(O)c(O)cc1c4c23 [PCM-0090664] | 15.3
9 | CCC(=C(c1ccc(O)cc1)c1ccc(OCCN(C)C)cc1)c1ccccc1 [PCM-0215638] | -11.6
10 | Cc1ccc(CNc2ncnc3ccc(-c4ccc(CO)o4)cc23)o1 [PCM-0215296] | 6.9
11 | CC[C@@H]([C@H](C)O)n1ncn(-c2ccc(N3CCN(c4ccc(OC[C@@H]5CO[C@@](Cn6cncn6)(c6ccc(F)cc6F)C5)cc4)CC3)cc2)c1=O [PCM-0214608] | 4.7
12 | COC(=O)Nc1nc2ccc(Sc3ccccc3)cc2[nH]1 [PCM-0085863] | -7
13 | COc1cc(C(=O)N2CCC(N3CCN(C)CC3)CC2)ccc1Nc1ncc2c(n1)N(C)c1ccccc1C(=O)N2C [PCM-0215491] | 2.8
14 | C=C1C[C@@]23CC[C@H]4[C@@](C)(CCC[C@@]4(C)C(=O)O[C@@H]4O[C@H](CO)[C@@H](O)[C@H](O)[C@H]4O)[C@@H]2CC[C@]1(O[C@@H]1O[C@H](CO)[C@@H](O)[C@H](O[C@@H]2O[C@H](CO)[C@@H](O)[C@H](O)[C@H]2O)[C@H]1O[C@@H]1O[C@@H](C)[C@H](O)[C@@H](O)[C@H]1O)C3 [PCM-0214859] | -14.8
15 | CCC1=C[C@@H]2CN(C1)Cc1c([nH]c3ccccc13)[C@@](C(=O)OC)(c1cc3c(cc1OC)N(C)[C@H]1[C@@](O)(C(=O)OC)[C@H](OC(C)=O)[C@]4(CC)C=CCN5CC[C@]31[C@@H]54)C2 [PCM-0214792] | 14
16 | COc1ccc([C@@H]2CC(=O)c3c(O)cc(O[C@@H]4O[C@H](CO)[C@@H](O)[C@H](O)[C@H]4O[C@@H]4O[C@@H](C)[C@H](O)[C@@H](O)[C@H]4O)cc3O2)cc1 [PCM-0216440] | 2.3
17 | CC(C)=C1C/C=C(\C)CC/C=C(\C)CC1=O [PCM-0216542] | -4.6
18 | OCCc1ccc(O)c(O)c1 [PCM-0214956] | -2.3
19 | CC(C)=CCC[C@](C)(O[C@@H]1O[C@H](CO[C@@H]2O[C@H](CO)[C@@H](O)[C@H](O)[C@H]2O)[C@@H](O)[C@H](O)[C@H]1O)[C@H]1CC[C@]2(C)[C@@H]1[C@H](O)C[C@@H]1[C@@]3(C)CC[C@H](O[C@@H]4O[C@H](CO)[C@@H](O)[C@H](O)[C@H]4O)C(C)(C)[C@@H]3CC[C@]12C [PCM-0216463] | 4.6
20 | Oc1ccc(-c2nc(-c3ccc(F)cc3)c(-c3ccncc3)[nH]2)cc1 [PCM-0064463] | 18.6
21 | CC[C@@H]1C(=O)N(C)c2cnc(Nc3ccc(C(=O)NC4CCC(N5CCN(CC6CC6)CC5)CC4)cc3OC)nc2N1C(C)C (stereo partly drawn) [PCM-0095279] | -14.5
22 | COc1ccc(Cl)cc1C(=O)NCCc1ccc(S(=O)(=O)NC(=O)NC2CCCCC2)cc1 [PCM-0003840] | -65.4
23 | C[C@H]1CN(C[C@H](Cc2ccccc2)C(=O)NCC(=O)O)CC[C@@]1(C)c1cccc(O)c1 [PCM-0216566] | -13.1
24 | NC1=N[C@@]2(c3cc(NC(=O)c4ccc(F)cn4)ccc3F)COC[C@H]2CS1 [PCM-0095207] | -3.1

Row | Structure (SMILES) | inhibition at 10 µM [%]
25 | O=C(O)c1cn(C2CC2)c2cc(Cl)c(F)cc2c1=O [PCM-0216105] | 7.7
26 | O=C(Nc1cccnc1)c1cc(-c2ccnc(F)c2)ccc1OCc1ccccc1 [PCM-0213433] | 2.1
27 | C[Si](C)(C)N=C(O[Si](C)(C)C)C(F)(F)F [PCM-0216107] | -6.9
28 | Nc1ncnc2c1ncn2C(C=O)OC(C=O)CO (stereo not drawn) [PCM-0215903] | 0.8
29 | Clc1ccccc1CN1CCc2sccc2C1 [PCM-0085848] | -2.6
30 | C[C@H](CCC(=O)NCCS(=O)(=O)O)[C@H]1CC[C@H]2[C@@H]3[C@@H](O)C[C@@H]4C[C@H](O)CC[C@]4(C)[C@H]3CC[C@]12C [PCM-0215517] | 5.4
31 | CC1(C)CCC[C@](C)([C@H]2CC[C@]3(C)[C@@H]2[C@H](O)C[C@@H]2[C@@]4(C)CC[C@H](O)C(C)(C)[C@@H]4[C@H](O)C[C@]23C)O1 [PCM-0215005] | -2.8
32 | Nc1nc(NCCc2ccc(O)cc2)nc2nc(-c3ccco3)nn12 [PCM-0215654] | -4.6
33 | C[C@@H]1CC[C@@]2(OC1)O[C@H]1C[C@H]3[C@@H]4CC=C5C[C@@H](O)C[C@@H](O)[C@]5(C)[C@H]4CC[C@]3(C)[C@H]1[C@@H]2C [PCM-0216451] | -20.8
34 | CCCCN1CCCC[C@H]1C(=O)Nc1c(C)cccc1C [PCM-0214809] | -25.7
35 | CS(=O)(=O)Nc1ccc([N+](=O)[O-])cc1OC1CCCCC1 [PCM-0215740] | 3.4
36 | CC1(C)[C@H]2CC[C@]1(C)[C@H](O)C2 [PCM-0215078] | -20.2
37 | O=C(O)c1ccc(Cl)cc1O [PCM-0214870] | -10.9
38 | Cc1nn(C)c(COc2ccc(N3CCN(S(=O)(=O)N(C)C)CC3)cc2)c1-c1cccc2c(CCCOc3cccc4ccccc34)c(C(=O)O)n(CCN3CCOCC3)c12 [PCM-0215538] | 5.1
39 | O=C(Nc1cccc(Cl)c1)c1ccccn1 [PCM-0095506] | 5.4
40 | C[C@H](C[C@H](O)[C@@H](O)C(C)(C)O)C1=C2C[C@H](O)[C@H]3[C@@]4(C)CCC(=O)C(C)(C)[C@@H]4CC[C@]3(C)[C@@]2(C)CC1 [PCM-0216519] | -29.3
41 | Nc1ncnc2c1c(I)cn2[C@@H]1O[C@H](CO)[C@@H](O)[C@H]1O [PCM-0215664] | 23.9
42 | O=C(Nc1ncc([N+](=O)[O-])s1)c1ccccc1O [PCM-0216250] | 7.7
43 | CS(=O)(=O)c1cccc(CNc2nc(Nc3ccc4c(c3)CCC(=O)N4)ncc2C(F)(F)F)c1 [PCM-0064954] | 55.2
44 | COC(=O)N[C@H](C(=O)N1CCC[C@H]1c1ncc(-c2ccc3c(c2)O[C@@H](c2ccccc2)n2c-3cc3cc(-c4cnc([C@@H]5CCCN5C(=O)[C@@H](NC(=O)OC)C(C)C)[nH]4)ccc32)[nH]1)C(C)C [PCM-0216642] | 52.5
45 | O=c1cc(N2CCOCC2)oc2c(-c3ccccc3)cccc12 [PCM-0065588] | -22.1

Row | Structure (SMILES) | inhibition at 10 µM [%]
46 | Clc1cccc(-c2nnnn2Cc2cccnc2)c1Cl [PCM-0215469] | -0.8
47 | OC[C@H]1O[C@@](CO)(OC[C@@]2(O[C@H]3O[C@H](CO)[C@@H](O)[C@H](O)[C@H]3O)O[C@H](CO)[C@@H](O)[C@@H]2O)[C@@H](O)[C@@H]1O [PCM-0216401] | 21.6
48 | CC(=O)O[C@H]1CC(=O)OC(C)(C)[C@@H]2CC(=O)[C@]3(C)[C@H](CC[C@@]4(C)[C@H](c5ccoc5)OC(=O)[C@H]5O[C@]543)[C@@]12C [PCM-0216014] | 13.9
49 | O=C1CCC[C@@H]2[C@H]3CCC[N@+]4([O-])CCC[C@@H](CN12)[C@@H]34 [PCM-0094874] | -8.6
50 | CC1=CC(=O)CC(C)(C)C1=O [PCM-0215085] | 7.8
51 | O=C(C[S+]([O-])Cc1ccco1)NC/C=C\COc1cc(CN2CCCCC2)ccn1 (stereo not drawn) [PCM-0095231] | -9
52 | CCOC(=O)c1[nH]c2cc(Cl)ccc2c1C(C(=O)NC(C)(C)C)N(C=O)Cc1ccc(Cl)cc1 (stereo not drawn) [PCM-0095744] | 13.1
53 | Cn1c(=O)c2c(ncn2CC(O)CO)n(C)c1=O (stereo not drawn) [PCM-0085824] | 0.8
54 | Cc1cn([C@H]2C=C[C@@H](CO)O2)c(=O)[nH]c1=O [PCM-0065071] | 2.3
55 | CCOc1ccc(Cc2cc([C@]34OC[C@](CO)(O3)[C@@H](O)[C@H](O)[C@H]4O)ccc2Cl)cc1 [PCM-0216244] | 7.7
56 | CC1(C)S[C@@H]2[C@H](NC(=O)[C@H](NC(=O)N3CCNC3=O)c3ccccc3)C(=O)N2[C@H]1C(=O)O [PCM-0095627] | 30.4
57 | O=c1[nH]c2ccccc2n1CCCN1CCC(n2c(=O)[nH]c3cc(Cl)ccc32)CC1 [PCM-0065112] | 5.4
58 | CC(C)C[C@H](NP(=O)(O)O[C@@H]1O[C@@H](C)[C@H](O)[C@@H](O)[C@H]1O)C(=O)N[C@@H](Cc1c[nH]c2ccccc12)C(=O)O [PCM-0215347] | 14.7
59 | O=C(/C=C/c1ccc(O)c(O)c1)O[C@@H]1C[C@](O)(C(=O)O)C[C@@H](O)[C@H]1O [PCM-0087069] | -10.1
60 | CCOCCn1c(C2CCN(CCc3ccc(C(C)(C)C(=O)O)cc3)CC2)nc2ccccc21 [PCM-0215887] | 10.2
61 | OC[C@H]1O[C@@H](c2ccc(Cl)c(Cc3ccc(O[C@H]4CCOC4)cc3)c2)[C@H](O)[C@@H](O)[C@@H]1O [PCM-0095610] | 12.4
62 | Cc1ccc(C(=O)Nc2cccc(C(F)(F)F)c2)cc1Nc1nc(-c2cccnc2)nc2c1cnn2C [PCM-0095241] | 4.8
63 | O=C(O)CCCC[C@@H]1SC[C@@H]2NC(=O)N[C@@H]21 [PCM-0085973] | 0
64 | Oc1ccc2ccccc2c1SSc1c(O)ccc2ccccc12 [PCM-0065009] | 17.2
65 | C[C@H](Nc1ncnc2nc[nH]c12)c1cc2ccc(F)cc2nc1-c1ccccn1 [PCM-0215539] | 3.4
66 | CCOC(=O)N1CCC(CN(Cc2ccc(Cl)cc2)Cc2ccc([N+](=O)[O-])s2)C1 (stereo not drawn) [PCM-0215989] | 20.1
